This passage reports IC50 results from US20150284375A1 (AJINOMOTO CO., INC., priority 2012, published 2015).

For the experiment, the target named is T1, human TRPA1 (Homo sapiens, UniProt O75762).
T1 construct: expressed in transfected cells; host or cells: Human embryonic kidney-derived 293T cells, transiently transfected with the pcDNA3.1/zeo(+) human TRPA1 plasmid
The experiment in a line: Measurement of TRPA1 antagonist activity (intracellular calcium increase, FLIPR, allylisothiocyanate stimulation). It counts as cell-based. The conditions noted are these: allylisothiocyanate 20 μM stimulation, FLIPR calcium assay; read-out: antagonism hTRPA1. A digest of the protocol: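 IC50 derives from a sigmoid fit of inhibition of the 5-min FLIPR fluorescence change evoked by 20 μM allylisothiocyanate, normalized between agonist and buffer responses. Test substance, diluted in HBSS/20 mM HEPES pH 7.2 plus 0.1% BSA, was applied 10 min beforehand at room temperature to Calcium4-loaded 293T cells transiently expressing human TRPA1.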

T1 sequence (O75762 whole entry): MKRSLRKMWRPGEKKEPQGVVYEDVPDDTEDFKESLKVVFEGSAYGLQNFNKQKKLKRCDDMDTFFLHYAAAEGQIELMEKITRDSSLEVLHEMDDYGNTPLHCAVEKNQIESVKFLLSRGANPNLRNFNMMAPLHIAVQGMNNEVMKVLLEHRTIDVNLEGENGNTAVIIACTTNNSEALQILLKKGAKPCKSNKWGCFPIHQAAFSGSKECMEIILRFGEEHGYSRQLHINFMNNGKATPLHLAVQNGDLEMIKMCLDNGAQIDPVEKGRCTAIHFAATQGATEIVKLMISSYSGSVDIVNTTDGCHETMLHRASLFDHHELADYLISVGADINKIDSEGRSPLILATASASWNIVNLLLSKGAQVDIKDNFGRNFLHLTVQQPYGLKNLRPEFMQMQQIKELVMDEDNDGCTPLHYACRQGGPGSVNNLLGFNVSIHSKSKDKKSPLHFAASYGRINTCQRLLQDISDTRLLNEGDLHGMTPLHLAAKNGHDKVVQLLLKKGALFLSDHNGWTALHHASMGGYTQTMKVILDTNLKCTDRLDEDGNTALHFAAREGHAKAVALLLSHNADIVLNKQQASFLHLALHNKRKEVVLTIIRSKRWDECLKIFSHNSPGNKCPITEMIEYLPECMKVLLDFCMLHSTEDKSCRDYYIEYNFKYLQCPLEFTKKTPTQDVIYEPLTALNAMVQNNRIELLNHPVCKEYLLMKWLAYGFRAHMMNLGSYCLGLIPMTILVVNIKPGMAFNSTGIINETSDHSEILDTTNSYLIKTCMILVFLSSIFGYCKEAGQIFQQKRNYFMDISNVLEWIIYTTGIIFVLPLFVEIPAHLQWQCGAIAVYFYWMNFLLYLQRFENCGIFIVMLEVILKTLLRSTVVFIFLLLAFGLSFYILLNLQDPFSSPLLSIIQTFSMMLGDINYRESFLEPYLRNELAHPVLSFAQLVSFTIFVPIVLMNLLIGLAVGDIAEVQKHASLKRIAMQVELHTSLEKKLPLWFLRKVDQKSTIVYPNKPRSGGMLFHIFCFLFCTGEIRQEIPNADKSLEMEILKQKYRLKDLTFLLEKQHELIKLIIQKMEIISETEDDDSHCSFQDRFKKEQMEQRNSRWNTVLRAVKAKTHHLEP

For `O=C(NCc1cccc(OCc2cccc(C(F)(F)F)c2)c1)[C@@H]1CCCN1S(=O)(=O)c1ccc(F)cc1` [Example 123, (2S)-1-(4-fluorophenyl)sulfonyl-N-[[3-[[3-(trifluoromethyl)phenyl]methoxy]phenyl]methyl]pyrrolidine-2-carboxamide], the IC50 stood at 25 nM. The result for `COc1cccc(COc2cccc(CNC(=O)[C@@H]3CCCN3S(=O)(=O)c3ccc(F)cc3)c2)c1` [Example 124, (2S)-1-(4-fluorophenyl)sulfonyl-N-[[3-[(3-methoxyphenyl)methoxy]phenyl]methyl]pyrrolidine-2-carboxamide] reads 130 nM; that for `CN(C)c1cccc(COc2cccc(CNC(=O)[C@@H]3CCCN3S(=O)(=O)c3ccc(F)cc3)c2)c1` [Example 125, (2S)-N-[[3-[[3-(dimethylamino)phenyl]methoxy]phenyl]methyl]-1-(4-fluorophenyl)sulfonyl-pyrrolidine-2-carboxamide], 38 nM.

For the compound `O=C(NCc1cccc(OCc2cccc(N3CCCCC3)c2)c1)[C@@H]1CCCN1S(=O)(=O)c1ccc(F)cc1` [Example 126, (2S)-1-(4-fluorophenyl)sulfonyl-N-[[3-[[3-(1-piperidyl)phenyl]methoxy]phenyl]methyl]pyrrolidine-2-carboxamide], the IC50 amounted to 38 nM. With `O=C(NCc1cccc(OCc2cccc(N3CCOCC3)c2)c1)[C@@H]1CCCN1S(=O)(=O)c1ccc(F)cc1` [Example 127, (2S)-1-(4-fluorophenyl)sulfonyl-N-[[3-[(3-morpholinophenyl)methoxy]phenyl]methyl]pyrrolidine-2-carboxamide] the figure was 130 nM; with `O=C(NCc1cccc(OCc2ccccc2F)c1)[C@@H]1CCCN1S(=O)(=O)c1ccc(F)cc1` [Example 128, (2S)-N-[[3-[(2-fluorophenyl)methoxy]phenyl]methyl]-1-(4-fluorophenyl)sulfonyl-pyrrolidine-2-carboxamide], 120 nM; with `CN(C)c1ccccc1COc1cccc(CNC(=O)[C@@H]2CCCN2S(=O)(=O)c2ccc(F)cc2)c1` [Example 129, (2S)-N-[[3-[[2-(dimethylamino)phenyl]methoxy]phenyl]methyl]-1-(4-fluorophenyl)sulfonyl-pyrrolidine-2-carboxamide], 640 nM. As to `O=C(NCc1cccc(OCc2ccc(F)c(F)c2)c1)[C@@H]1CCCN1S(=O)(=O)c1ccc(F)cc1` [Example 130, (2S)-N-[[3-[(3,4-difluorophenyl)methoxy]phenyl]methyl]-1-(4-fluorophenyl)sulfonyl-pyrrolidine-2-carboxamide], the IC50 came to 20 nM. With `O=C(NCc1cccc(OCc2ccc(Cl)c(F)c2)c1)[C@@H]1CCCN1S(=O)(=O)c1ccc(F)cc1` [Example 131, (2S)-N-[[3-[(4-chloro-3-fluoro-phenyl)methoxy]phenyl]methyl]-1-(4-fluorophenyl)sulfonyl-pyrrolidine-2-carboxamide] the figure was 14 nM. The result for `O=C(NCc1cccc(OCc2cccnc2)c1)[C@@H]1CCCN1S(=O)(=O)c1ccc(F)cc1` [Example 132, (2S)-1-(4-fluorophenyl)sulfonyl-N-[[3-(3-pyridylmethoxy)phenyl]methyl]pyrrolidine-2-carboxamide] reads 2600 nM; that for `O=C(NCc1cccc(OCc2ccncc2)c1)[C@@H]1CCCN1S(=O)(=O)c1ccc(F)cc1` [Example 133, (2S)-1-(4-fluorophenyl)sulfonyl-N-[[3-(4-pyridylmethoxy)phenyl]methyl]pyrrolidine-2-carboxamide], 4400 nM; that for `O=C(NCc1cccc(OCc2ccc(C(F)(F)F)nc2)c1)[C@@H]1CCCN1S(=O)(=O)c1ccc(F)cc1` [Example 134, (2S)-1-(4-fluorophenyl)sulfonyl-N-[[3-[[6-(trifluoromethyl)-3-pyridyl]methoxy]phenyl]methyl]pyrrolidine-2-carboxamide], 38 nM. With `O=C(NCc1cccc(OCc2ccnc(C(F)(F)F)c2)c1)[C@@H]1CCCN1S(=O)(=O)c1ccc(F)cc1` [Example 135, (2S)-1-(4-fluorophenyl)sulfonyl-N-[[3-[[2-(trifluoromethyl)-4-pyridyl]methoxy]phenyl]methyl]pyrrolidine-2-carboxamide] the figure was 67 nM; with `O=C(NCc1cccc(OCc2cccc(C(F)(F)F)n2)c1)[C@@H]1CCCN1S(=O)(=O)c1ccc(F)cc1` [Example 136, (2S)-1-(4-fluorophenyl)sulfonyl-N-[[3-[[6-(trifluoromethyl)-2-pyridyl]methoxy]phenyl]methyl]pyrrolidine-2-carboxamide], 140 nM; with `O=C(NCc1cccc(OCc2cncc(C(F)(F)F)c2)c1)[C@@H]1CCCN1S(=O)(=O)c1ccc(F)cc1` [Example 137, (2S)-1-(4-fluorophenyl)sulfonyl-N-[[3-[[5-(trifluoromethyl)-3-pyridyl]methoxy]phenyl]methyl]pyrrolidine-2-carboxamide], 44 nM.

`O=C(NCc1cccc(OCc2cncc(Cl)c2)c1)[C@@H]1CCCN1S(=O)(=O)c1ccc(F)cc1` [Example 138, (2S)-N-[[3-[(5-chloro-3-pyridyl)methoxy]phenyl]methyl]-1-(4-fluorophenyl)sulfonyl-pyrrolidine-2-carboxamide]: the IC50 stood at 110 nM. The result for `O=C(NCc1cccc(OCc2ccoc2)c1)[C@@H]1CCCN1S(=O)(=O)c1ccc(F)cc1` [Example 139, (2S)-1-(4-fluorophenyl)sulfonyl-N-[[3-(3-furylmethoxy)phenyl]methyl]pyrrolidine-2-carboxamide] reads 290 nM; that for `O=C(NCc1cccc(OCc2ccco2)c1)[C@@H]1CCCN1S(=O)(=O)c1ccc(F)cc1` [Example 140, (2S)-1-(4-fluorophenyl)sulfonyl-N-[[3-(2-furylmethoxy)phenyl]methyl]pyrrolidine-2-carboxamide], 330 nM.

For the compound `O=C(NCc1cccc(OCc2ccsc2)c1)[C@@H]1CCCN1S(=O)(=O)c1ccc(F)cc1` [Example 141, (2S)-1-(4-fluorophenyl)sulfonyl-N-[[3-(3-thienylmethoxy)phenyl]methyl]pyrrolidine-2-carboxamide], the IC50 stood at 89 nM. On to `O=C(NCc1cccc(OCc2cccs2)c1)[C@@H]1CCCN1S(=O)(=O)c1ccc(F)cc1` [Example 142, (2S)-1-(4-fluorophenyl)sulfonyl-N-[[3-(2-thienylmethoxy)phenyl]methyl]pyrrolidine-2-carboxamide], for which the IC50 turned out to be 110 nM. The result for `C[C@H](Oc1cccc(CNC(=O)[C@@H]2CCCN2S(=O)(=O)c2ccc(F)cc2)c1)c1ccccc1` [Example 144, (2S)-1-(4-fluorophenyl)sulfonyl-N-[[3-[(1S)-1-phenylethoxy]phenyl]methyl]pyrrolidine-2-carboxamide] reads 550 nM. The result for `C[C@@H](Oc1cccc(CNC(=O)[C@@H]2CCCN2S(=O)(=O)c2ccc(F)cc2)c1)c1ccccn1` [Example 146, (2S)-1-(4-fluorophenyl)sulfonyl-N-[[3-[(1R)-1-(2-pyridyl)ethoxy]phenyl]methyl]pyrrolidine-2-carboxamide] reads 9800 nM. For `C[C@H](Oc1cccc(CNC(=O)[C@@H]2CCCN2S(=O)(=O)c2ccc(F)cc2)c1)c1ccccn1` [Example 147, (2S)-1-(4-fluorophenyl)sulfonyl-N-[[3-[(1S)-1-(2-pyridyl)ethoxy]phenyl]methyl]pyrrolidine-2-carboxamide], the IC50 amounted to 8300 nM. The result for `O=C(NCc1cccc(OCCc2ccccc2)c1)[C@@H]1CCCN1S(=O)(=O)c1ccc(F)cc1` [Example 148, (2S)-1-(4-fluorophenyl)sulfonyl-N-[(3-phenethyloxyphenyl)methyl]pyrrolidine-2-carboxamide] reads 340 nM; that for `O=C(NCc1cccc(OCc2ccc(C(F)(F)F)nc2)c1)[C@@H]1CCCN1S(=O)(=O)c1ccco1` [Example 149, (2S)-1-(2-furylsulfonyl)-N-[[3-[[6-(trifluoromethyl)-3-pyridyl]methoxy]phenyl]methyl]pyrrolidine-2-carboxamide], 240 nM; that for `O=C(NCc1cccc(OCc2ccnc(C(F)(F)F)c2)c1)[C@@H]1CCCN1S(=O)(=O)c1ccco1` [Example 150, (2S)-1-(2-furylsulfonyl)-N-[[3-[[2-(trifluoromethyl)-4-pyridyl]methoxy]phenyl]methyl]pyrrolidine-2-carboxamide], 110 nM. The result for `O=C(NCc1ccc(Oc2cccc(C(F)(F)F)c2)cc1)[C@@H]1C=CCN1S(=O)(=O)c1ccc(F)cc1` [Example 151, (2S)-1-(4-fluorophenyl)sulfonyl-N-[[4-[3-(trifluoromethyl)phenoxy]phenyl]methyl]-2,5-dihydropyrrole-2-carboxamide] reads 290 nM.

Consider `O=C(NCc1ccc(Oc2cccc(C(F)(F)F)c2)cc1)[C@@H]1CCCN1S(=O)(=O)c1ccco1` [Example 152, (2S)-1-(2-furylsulfonyl)-N-[[4-[3-(trifluoromethyl)phenoxy]phenyl]methyl]pyrrolidine-2-carboxamide], for which the IC50 is 460 nM. With `O=C(NCc1ccc(Oc2cccc(C(F)(F)F)c2)cc1)[C@@H]1CCCN1S(=O)(=O)c1ccoc1` [Example 153, (2S)-1-(3-furylsulfonyl)-N-[[4-[3-(trifluoromethyl)phenoxy]phenyl]methyl]pyrrolidine-2-carboxamide] the figure was 310 nM; with `O=C(NCc1ccc(Oc2cccc(C(F)(F)F)c2)cc1)[C@@H]1CCCN1S(=O)(=O)c1ccsc1` [Example 154, (2S)-1-(3-thienylsulfonyl)-N-[[4-[3-(trifluoromethyl)phenoxy]phenyl]methyl]pyrrolidine-2-carboxamide], 180 nM; with `O=C(NCc1ccc(Oc2ccnc(C(F)(F)F)c2)cc1)[C@@H]1CCCN1S(=O)(=O)c1ccco1` [Example 155, (2S)-1-(2-furylsulfonyl)-N-[[4-[[2-(trifluoromethyl)-4-pyridyl]oxy]phenyl]methyl]pyrrolidine-2-carboxamide], 5700 nM.
